Tested on: gamma secretase cleavage of NotchΔE (ZEDN1)
Assay: Notch Signaling Assay for Selective Inhibitors of Gamma Secretase (reporter gene based)
Format: cell-based
Details: Rattus norvegicus; assay not given; it follows the Notch signaling (4xwtCBF1 Luciferase reporter) method
Excerpt: Notch Signaling Assay for Selective Inhibitors of Gamma Secretase.
Due to the importance of Notch signaling in cell fate determination, and tissue differentiation during both development and in the adult, inhibition of Notch signaling by gamma secretase inhibitors is postulated to be a limiting factor in their therapeutic utility. In order to identify selective gamma secretase inhibitors, we have employed a reporter gene based Notch signaling assay using a constitutively active rat Notch1 construct (ZEDN1) provided by Dr Gerry Weinmaster, who is at the University of California at Los Angeles (UCLA) as described in Shawber, C., D. Nofziger, J. J. Hsieh, C. Lindsell, O. Bogler, D. Hayward and G. Weinmaster (1996). “Notch signaling inhibits muscle cell differentiation through a CBF1-independent pathway.” Development 122(12): 3765-73 in combination with the CBF1 repressible Luciferase reporter gene 4xwtCBF1Luc (Hsieh, J. J., T. Henkel, P. Salmon, E. Robey, M. G. Peterson and S. D. Hayward (1996). “Truncated mammalian Notch1 activates CBF1/RBPJk-repressed genes by a mechanism resembling that of Epstein-Barr virus EBNA2.” Mol Cell Biol 16(3): 952-9).
When 4xwtCBF1 Luciferase is co-transfected with NotchΔE (ZEDN1), γ-secretase cleavage of NotchΔE releases the Notch intracellular domain (NICD), which translocates to the nucleus and de-represses CBF1 mediated transcriptional repression, leading to transcription of the Luciferase reporter gene. Luciferase activity is easily assayed in cell extracts using commercially available kits. The activity of the reporter gene is directly correlated with gamma secretase cleavage of NotchΔE, and as such, a reduction in Luciferase activity provides a convenient measure of inhibition of gamma secretase cleavage of NotchΔE. A comparison of the IC50 values of compounds for inhibition of Notch signaling versus inhibition of β-amyloid production in 293sw cells is employed to guide in the selection of compounds that have the desired property of potent inhibition of β-amyloid synthesis with minimal inhibition of Notch Signaling.

SMILES	IC50 [nM]
O=C1NCCCC[C@H]1N(CC1CCCCO1)S(=O)(=O)c1ccc(Cl)nc1 (stereo partly drawn) [6-Chloro-pyridine-3-sulfonic acid [(R)-2-oxo-azepan-3-yl]-(tetrahydro-pyran-2-ylmethyl)-amide]	> 1000
O=C1NCCCC[C@H]1N(Cc1ccc(Br)cc1)S(=O)(=O)c1cccnc1 [Pyridine-3-sulfonic acid (4-bromo-benzyl)-[(R)-2-oxo-azepan-3-yl]-amide]	100 to 1000
O=C1NCCCC[C@H]1N(Cc1ccc(Br)cc1)S(=O)(=O)c1ccc(Cl)s1 [5-Chloro-thiophene-2-sulfonic acid (4-bromo-benzyl)-[(R)-2-oxo-azepan-3-yl]-amide]	100 to 1000
O=C1NCCCC[C@H]1N(CC=Cc1cccnc1)S(=O)(=O)c1ccc(Cl)nc1 [6-Chloro-pyridine-3-sulfonic acid [(R)-2-oxo-azepan-3-yl]-(3-pyridin-3-yl-allyl)-amide]	1 to 100
Cc1ccc(S(=O)(=O)N(Cc2ccc(Br)cc2)[C@@H]2CCCCNC2=O)s1 [5-Methyl-thiophene-2-sulfonic acid (4-bromo-benzyl)-[(R)-2-oxo-azepan-3-yl]-amide]	> 1000
CC(=Cc1ccccc1)CN([C@@H]1CCCCNC1=O)S(=O)(=O)c1ccc(Cl)nc1 [6-Chloro-pyridine-3-sulfonic acid (2-methyl-3-phenyl-allyl)-[(R)-2-oxo-azepan-3-yl]-amide]	1 to 100
Cn1nnc2cc(CN([C@@H]3CCCCNC3=O)S(=O)(=O)c3ccc(Cl)s3)ccc21 [5-Chloro-thiophene-2-sulfonic acid (1-methyl-1H-benzotriazol-5-ylmethyl)-[(R)-2-oxo-azepan-3-yl]-amide]	100 to 1000
Cn1nnc2cc(CN([C@@H]3CCCCNC3=O)S(=O)(=O)c3ccc(Cl)nc3)ccc21 [6-Chloro-pyridine-3-sulfonic acid (1-methyl-1H-benzotriazol-5-ylmethyl)-[(R)-2-oxo-azepan-3-yl]-amide]	1 to 100

Source: patent US7569562B2, “N-substituted heterocyclic sulfonamides” (Elan Pharmaceuticals, Inc., priority 2005, dated 2009)
